What all share (format): cell-based
The subject of one assay is Aspergillus flavus. As to the kind of experiment: MIC, YAG medium, Aspergillus flavus. Particulars: YAG medium; for MIC: Aspergillus flavus, read-out: MIC A Flavus 01. On the procedure:
(§1) Measurement of Minimum Inhibitory Concentrations (MICs)
(§2) Between 1 and 5 mgs of compound were accurately weighed out into a sterile Eppendorf tube. The compound was dissolved in DMSO to give a solution containing 5 mg/ml. Tubes were stored at −20° C. until required.
(§3) On the day of testing thawed solutions were vortex mixed to ensure homogeneity. 30 μl of solution was removed and added to 570 μl of sterile water in a separate sterile Eppendorf. The thoroughly mixed solution was used to prepare a series of doubling dilutions in water, in a deep well plate. Eleven replicate plates were prepared using a Minitrak by aspirating 20 μl from each well into eleven clear polystyrene 96 well plates.
(§4) Spores of Aspergillus spp (Aspergillus fumigatus, Aspergillus terreus, Aspergillus niger and Aspergillus flavus) were harvested from cultures grown on Sabarauds agar for 5 days, and resuspended in PBS/Tween 80 to approx 1×10^7 cfu/ml Other filamentous fungi (Fusarium solani, Scedosporium spp., Trichophyton spp., Absidia corymbifera), were grown on Sabarauds agar for 2-10 days and spores/hyphae resuspended in PBS/Tween to give approx 1×10^7 cfU/ml. Candida species (Candida albicans, Candida glabrata, Candida krusei, Candida parapsilosis and Candida tropicalis) were grown on Sabarauds agar, cells were harvested from the agar using a sterile loop and resuspended in PBS/Tween 80 to approx 1×10^6 cfu/ml. Each organism suspension was diluted in RPMI medium, containing 2% glucose and 0.135M MOPS buffer (pH7.0) to 2×10^4 cfu/ml for Aspergillus spp and other filamentous fungi and 2×10^3 cfu/ml for yeast. 80 μl of an organism suspension was added to each well of the plate containing drug dilutions.
(§5) This produced MIC plates with a drug range 50-0.05 mg/L and organism inocula of 1-2×10^4 cfu/ml for Aspergillus spp and other filamentous fungi and 1-2×10^3 cfu/ml for yeasts. All plates were incubated for 24-48 hrs at 35° C. Growth was assessed by monitoring the optical density at 485 nm for each well. The MIC of a compound is the lowest drug concentration that inhibits growth of an organism by >80% compared with a drug free control. MICs are recorded as mg/L. Other growth media can be used for susceptibility testing, and the activity of the described compounds can also be assessed in a medium comprising, 1% glucose, 1% ammonium chloride and 0.5% yeast extract (YAG medium). To perform MIC tests in this medium, dilutions of compounds are prepared in microtitre plates as described above. Fungal strains to be tested are grown and harvested in an identical manner to that described above, each organism suspension is then diluted in YAG medium to 2×10^4 cfu/ml for Aspergillus spp and other filamentous fungi and 2×10^3 cfu/ml for yeast. 80 μl of an organism suspension was added to each well of the plate containing drug dilutions. This produced MIC plates with a drug range 50-0.05 mg/L and organism inocula of 1-2×10^4 cfu/ml for Aspergillus spp and other filamentous fungi and 1-2×10^3 cfu/ml for yeasts. All plates were incubated for 24 hrs at 35° C. Growth was assessed by monitoring the optical density at 485 nm for each well. The MIC of a compound is the lowest drug concentration that inhibits growth of an organism by >70% compared with a drug free control. MICs are recorded as mg/L. In cases where the MIC of an organism is […]0.05 mg/L the MIC is repeated using a concentration range of 0.5-0.0005 mg/L. MIC tests in YAG medium have more clear-cut endpoints and have slightly lower MICS than those performed in RPMI medium.
(§6) The following organisms were tested: Aspergillus fumigatus AF293 and Aspergillus fumigatus AF210, Aspergillus niger, Aspergillus terreus, Aspergillus favus, Candida albicans, Candida krusei, Candida tropicalis, Candida glabrata, Candida parapsilosis, Trichophyton rubrum, Trichophyton mentagrophytes, Scedosporium prolificans, Scedosporium apiospermum, Absidia corymbifera, Fusarium solani.

Assay [1] relates to Aspergillus fumigatus AF293. Description: MIC, YAG medium, Aspergillus fumigatus AF293. The settings on record: YAG medium; for MIC: Aspergillus fumigatus, AF293, read-out: MIC A Fum. 293. On the procedure: as §1, §2, §3, §4, §5, §6
The subject of another assay is Aspergillus niger. As to the kind of experiment: MIC, YAG medium, Aspergillus niger. The settings on record: YAG medium; for MIC: Aspergillus niger, read-out: MIC A Niger 1. As for the experimental part: as §1, §2, §3, §4, §5, §6
The test system of another assay is Aspergillus terreus. Description: MIC, YAG medium, Aspergillus terreus. Particulars: YAG medium; for MIC: Aspergillus terreus, read-out: MIC A Terreus 4. On the procedure: as §1, §2, §3, §4, §5, §6
In assay [2] the test system is Aspergillus fumigatus AF210. As to the kind of experiment: MIC, YAG medium, Aspergillus fumigatus AF210. Particulars: YAG medium; for MIC: Aspergillus fumigatus, AF210, read-out: MIC A Fum. 210. As for the experimental part:
as §1, §2, §3, §4, §5, §6

Values after ≈ are worked out from the molar mass of the structure shown. Where only a bound is given, the exact number is not on record here.

The term MIC denotes the least concentration at which growth counts as inhibited. On to `O=C(Nc1ccc(C(=O)O)cc1)C(=O)c1c(-c2ccccc2)cc2ccccn12` [Example 159, 4-[2-Oxo-2-(2-phenyl-indolizin-3-yl)-acetylamino]-benzoic acid], for which the MIC is over 50 µg/mL with Aspergillus flavus; over 50 µg/mL in assay [1]; 1.6 µg/mL (≈ 4.16 µM) in the assay on Aspergillus niger; 50 µg/mL (≈ 130 µM) in the assay on Aspergillus terreus; over 50 µg/mL in assay [2].
As for `Cc1ccc(NC(=O)C(=O)c2c(-c3ccccc3)cc3cccc(C)n23)cc1` [Example 188, 2-(5-Methyl-2-phenyl-indolizin-3-yl)-2-oxo-N-p-tolyl-acetamide], the MIC is 3.1 µg/mL (≈ 8.41 µM) in the assay with Aspergillus flavus; 1.6 µg/mL (≈ 4.34 µM) in assay [1]; 0.4 µg/mL (≈ 1.09 µM) in the assay with Aspergillus niger; 0.8 µg/mL (≈ 2.17 µM) with Aspergillus terreus; 0.8 µg/mL (≈ 2.17 µM) in assay [2].
With `Cc1ccccc1NC(=O)C(=O)c1c(-c2cccnc2)cc2ccccn12` [Example 213, 2-Oxo-2-(2-pyridin-3-yl-indolizin-3-yl)-N-o-tolyl-acetamide], the MIC worked out at 0.4 µg/mL (≈ 1.13 µM) with Aspergillus flavus; 6.25 µg/mL (≈ 17.6 µM) in assay [1]; 1.6 µg/mL (≈ 4.5 µM) with Aspergillus niger; 0.8 µg/mL (≈ 2.25 µM) in the assay on Aspergillus terreus; 6.25 µg/mL (≈ 17.6 µM) in assay [2].
For `O=C(Nc1ccc(Cl)cc1)C(=O)c1c(-c2ccc(F)cc2)cc2ccccn12` [Example 210, N-(4-Chloro-phenyl)-2-[2-(4-fluoro-phenyl)-indolizin-3-yl]-2-oxo-acetamide], the minimal inhibitory concentration (MIC) in the assay on Aspergillus flavus was 0.05 µg/mL (≈ 0.127 µM); in assay [1], over 50 µg/mL; in the assay with Aspergillus niger, 0.05 µg/mL (≈ 0.127 µM); in the assay with Aspergillus terreus, 0.05 µg/mL (≈ 0.127 µM); in assay [2], over 50 µg/mL.
Take `COc1ccc(NC(=O)C(=O)c2c(-c3ccncc3)cc3ccccn23)cc1` [Example 162, N-(4-Methoxy-phenyl)-2-oxo-2-(2-pyridin-4-yl-indolizin-3-yl)-acetamide]: the minimal inhibitory concentration (MIC) with Aspergillus flavus is over 50 µg/mL; in assay [1] it was over 50 µg/mL; in the assay with Aspergillus niger it was 3.1 µg/mL (≈ 8.35 µM); in the assay with Aspergillus terreus, over 50 µg/mL; in assay [2] it was over 50 µg/mL.
As to `COc1ccc(NC(=O)C(=O)c2c(-c3cccc(C#N)c3)cc3ccccn23)cc1` [Example 236, 2-[2-(3-Cyano-phenyl)-indolizin-3-yl]-N-(4-methoxy-phenyl)-2-oxo-acetamide], the minimum inhibitory concentration (MIC) in the assay on Aspergillus flavus is 0.1 µg/mL (≈ 0.253 µM); in assay [1], over 50 µg/mL; in the assay on Aspergillus niger it was over 50 µg/mL; in the assay on Aspergillus terreus, 0.05 µg/mL (≈ 0.126 µM); in assay [2] it was over 50 µg/mL.
As to `O=C(Nc1ccc(F)cc1)C(=O)c1c(-c2ccc(F)cc2)cc2ccccn12` [Example 209, N-(4-Fluoro-phenyl)-2-[2-(4-fluoro-phenyl)-indolizin-3-yl]-2-oxo-acetamide], the MIC in the assay with Aspergillus flavus was 0.1 µg/mL (≈ 0.266 µM); in assay [1] it was over 50 µg/mL; with Aspergillus niger, 0.05 µg/mL (≈ 0.133 µM); in the assay with Aspergillus terreus, 0.05 µg/mL (≈ 0.133 µM); in assay [2], over 50 µg/mL.
Regarding `CN(C(=O)C(=O)c1c(-c2ccccc2)cc2ccccn12)c1ccccc1` [Example 186, N-Methyl-2-oxo-N-phenyl-2-(2-phenyl-indolizin-3-yl)-acetamide], the MIC in the assay on Aspergillus flavus came out at 25 µg/mL (≈ 70.5 µM); in assay [1], 12.5 µg/mL (≈ 35.3 µM); in the assay with Aspergillus niger it was 3.1 µg/mL (≈ 8.75 µM); with Aspergillus terreus it was 12.5 µg/mL (≈ 35.3 µM); in assay [2] it was 3.1 µg/mL (≈ 8.75 µM).
Consider `O=C(Nc1ccccc1F)C(=O)c1c(-c2cccnc2)cc2ccccn12` [Example 211, N-(2-Fluoro-phenyl)-2-oxo-2-(2-pyridin-3-yl-indolizin-3-yl)-acetamide], for which the minimum inhibitory concentration (MIC) was found to be 0.4 µg/mL (≈ 1.11 µM) with Aspergillus flavus; 6.25 µg/mL (≈ 17.4 µM) in assay [1]; 1.6 µg/mL (≈ 4.45 µM) in the assay on Aspergillus niger; 0.2 µg/mL (≈ 0.557 µM) in the assay on Aspergillus terreus; 6.25 µg/mL (≈ 17.4 µM) in assay [2].
For `CNC(=O)c1ccc(NC(=O)C(=O)c2c(-c3ccccc3)cc3ccccn23)cc1` [Example 153, N-Methyl-4-[2-oxo-2-(2-phenyl-indolizin-3-yl)-acetylamino]-benzamide], the MIC in the assay on Aspergillus flavus is 3.1 µg/mL (≈ 7.8 µM); in assay [1], over 50 µg/mL; in the assay with Aspergillus niger it was 0.8 µg/mL (≈ 2.01 µM); in the assay with Aspergillus terreus, over 50 µg/mL; in assay [2] it was 25 µg/mL (≈ 62.9 µM).
As for `O=C(C(=O)N1CCCCC1)c1c(-c2ccccc2)cc2ccccn12` [Example 184, 1-(2-Phenyl-indolizin-3-yl)-2-piperidin-1-yl-ethane-1,2-dione], the minimum inhibitory concentration (MIC) in the assay on Aspergillus flavus came to 50 µg/mL (≈ 150 µM); in assay [1] it was 25 µg/mL (≈ 75.2 µM); in the assay with Aspergillus niger, 0.8 µg/mL (≈ 2.41 µM); in the assay on Aspergillus terreus it was 6.25 µg/mL (≈ 18.8 µM); in assay [2] it was 6.25 µg/mL (≈ 18.8 µM).
Take `COCCNC(=O)C(=O)c1c(-c2ccccc2)cc2ccccn12` [Example 181, N-(2-Methoxy-ethyl)-2-oxo-2-(2-phenyl-indolizin-3-yl)-acetamide]: the minimum inhibitory concentration (MIC) in the assay on Aspergillus flavus was 25 µg/mL (≈ 77.6 µM); in assay [1], 50 µg/mL (≈ 155 µM); with Aspergillus niger it was 25 µg/mL (≈ 77.6 µM); in the assay with Aspergillus terreus it was 25 µg/mL (≈ 77.6 µM); in assay [2], 25 µg/mL (≈ 77.6 µM).
As for `Cc1c(NC(=O)C(=O)c2c(-c3ccccc3)cc3ccccn23)c(=O)n(-c2ccccc2)n1C` [Example 303, N-(1,5-Dimethyl-3-oxo-2-phenyl-2,3-dihydro-1-pyrazol-4-yl)-2-oxo-2-(2-phenyl-indolizin-3-yl)-acetamide], the “MIC A Flavus” value with Aspergillus flavus was found to be 50 µg/mL (≈ 111 µM). Besides, the “MIC A Fum. 293” value in assay [1] was determined as 50 µg/mL (≈ 111 µM). In addition, in the assay with Aspergillus niger, the “MIC A Niger” value worked out at 50 µg/mL (≈ 111 µM). In addition, the “MIC A Terreus” value in the assay with Aspergillus terreus was 25 µg/mL (≈ 55.5 µM). Moreover, the “MIC A Fum. 210” value in assay [2] stood at 50 µg/mL (≈ 111 µM).
For the compound `CON=C(C(=O)Nc1ccc(OC)cc1)c1c(-c2ccccc2)cc2ccccn12` (mixture of isomers) [Example 298, 2-[(E/Z)-Methoxyimino]-N-(4-methoxy-phenyl)-2-(2-phenyl-indolizin-3-yl)-acetamide], the “MIC A Flavus 01” value in the assay on Aspergillus flavus worked out at 0.1 µg/mL. Moreover, the “MIC A Fum. 293” value in assay [1] came out at 0.8 µg/mL. For the same compound, the “MIC A Niger 1” value in the assay on Aspergillus niger was found to be 0.2 µg/mL. The “MIC A Terreus 4” value with Aspergillus terreus is 0.2 µg/mL. Further, the “MIC A Fum. 210” value in assay [2] came to 0.8 µg/mL.
In the case of `O=C(C(=O)N1CCc2ccccc21)c1c(-c2ccccc2)cc2ccccn12` [Example 218, 1-(2,3-Dihydro-indol-1-yl)-2-(2-phenyl-indolizin-3-yl)-ethane-1,2-dione], the minimum inhibitory concentration (MIC) with Aspergillus flavus was over 50 µg/mL; in assay [1] it was over 50 µg/mL; with Aspergillus niger, 0.4 µg/mL (≈ 1.09 µM); in the assay on Aspergillus terreus it was over 50 µg/mL; in assay [2] it was over 50 µg/mL.
Turning to `CN(C(=O)C(=O)c1c(-c2cccnc2)cc2ccccn12)c1ccccc1` [Example 187, N-Methyl-2-oxo-N-phenyl-2-(2-pyridin-3-yl-indolizin-3-yl)-acetamide], the minimum inhibitory concentration (MIC) was over 50 µg/mL in the assay on Aspergillus flavus; over 50 µg/mL in assay [1]; 3.1 µg/mL (≈ 8.72 µM) with Aspergillus niger; over 50 µg/mL with Aspergillus terreus; over 50 µg/mL in assay [2].
As to `CN(C)CCOc1cccc(NC(=O)C(=O)c2c(-c3ccccc3)cc3ccccn23)c1` [Example 240, N-[3-(2-Dimethylamino-ethoxy)-phenyl]-2-oxo-2-(2-phenyl-indolizin-3-yl)-acetamide], the MIC was 12.5 µg/mL (≈ 29.2 µM) in the assay on Aspergillus flavus; 50 µg/mL (≈ 117 µM) in assay [1]; over 50 µg/mL in the assay with Aspergillus niger; 12.5 µg/mL (≈ 29.2 µM) in the assay on Aspergillus terreus; over 50 µg/mL in assay [2].
In the case of `Cc1cccc(NC(=O)C(=O)c2c(-c3cccnc3)cc3ccccn23)c1` [Example 215, 2-Oxo-2-(2-pyridin-3-yl-indolizin-3-yl)-N-m-tolyl-acetamide], the MIC was 0.05 µg/mL (≈ 0.141 µM) in the assay with Aspergillus flavus; 0.8 µg/mL (≈ 2.25 µM) in assay [1]; 0.4 µg/mL (≈ 1.13 µM) in the assay with Aspergillus niger; 0.05 µg/mL (≈ 0.141 µM) in the assay with Aspergillus terreus; 0.4 µg/mL (≈ 1.13 µM) in assay [2].

These data come from patent publication US8486962B2, “Antifungal agents” (F2G Ltd., priority 2005, dated 2013).
